Results on eleven compounds are retold here after patent publication US9028845B2, “Chimeric immunomodulatory compounds and methods of using the same-IV” (Dynavax Technologies Corporation, priority 2001, dated 2015).

In the data set the test system is human PBMCs. In words: Human PBMC cytokine response assay (IFN-γ and IFN-α in cell-free medium by ELISA), with or without cPLGA.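 On IFN-α (pg/ml) mean: 20 µg/mL compound for 24 hours.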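 On IFN-γ (pg/ml) mean: 20 µg/mL compound for 24 hours.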 Format: cell-based. To be noted: for IFN-α induction, in words: used alone; for IFN-γ (pg/ml) 28065: donor 28065 (high background), 1000 = outside assay limits; for IFN-α (pg/ml) 28065: donor 28065; for IFN-α (pg/ml) 28066 / IFN-γ (pg/ml) 28066: donor 28066; for IFN-α (pg/ml) 28067 / IFN-γ (pg/ml) 28067: donor 28067; for IFN-α (pg/ml) 28068 / IFN-γ (pg/ml) 28068: donor 28068; for IFN-a mean / IFN-g mean: mean of donors 28250-28253; for immunomodulatory activity (IFN-γ / IFN-α secretion), in words: used alone (no cPLGA). For orientation: In an ELISA, binding on a coated surface is turned into a signal by an enzyme label.

[1] abbreviates: mean of donors 110, 112, 119, 120, Table 14.
Setting [2] is: 20 ug/ml, 24 h, + PLGA = premixed with 100 μg/ml cPLGA.
[3] abbreviates: mean of donors 28065-28068, 20 ug/ml, 24 h, + PLGA = premixed with 100 μg/ml cPLGA.
Setting [4] is: mean of donors 28185-28188, Table 15.
Where [5] appears, read: Table 25, donor 28250, polynucleotides/spacers at amounts equivalent to the CIC, spacers alone 9 uM.
Setting [6] is: Table 24, mean of donors 28234-28237.
The mark [7] stands for this setting: mean of Donors 3-4, 20 μg/ml, 24 h.

Turning to “5′-TGACTGTGA-3′-HEG-5′-ACGTTCG-3′-HEG-5′-AGATGAT-3′ [Compound C-53]”, the IFN-α is, setting by setting: (Table 11, donor 28042) 0 pg/mL; (Table 11, donor 28043) 0 pg/mL; (Table 11, donor 28044) 0 pg/mL; (Table 11, donor 28045) 5 pg/mL. The IFN-γ (Table 11, donor 28042) stood at 39 pg/mL; the IFN-γ (Table 11, donor 28043) is 27 pg/mL; the IFN-γ (Table 11, donor 28044) was determined as 38 pg/mL; the IFN-γ (Table 11, donor 28045) stood at 26 pg/mL. This compound gave an IFN-α mean (Table 11, mean of donors) of 1 pg/mL. Moreover, the IFN-γ mean (Table 11, mean of donors) was 32 pg/mL.

Consider “TMEA-(5′-TGACTGTGAACGTTCGAGATGA-3′)3 (SEQ ID NO: 139) (See Ex. 23) [Compound C-99]”, for which the “IFN-α induction, in words” value is given as “did not induce IFN-α”. Besides, under “donor 110, Table 14”, the “IFN-α” value is 22 pg/mL and the “IFN-γ” value came out at 276 pg/mL. For the setting “donor 112, Table 14”, the “IFN-α” value was 4 pg/mL and the “IFN-γ” value was found to be 12 pg/mL. For the same compound, under “donor 119, Table 14”, the “IFN-α” value was 86 pg/mL and the “IFN-γ” value came to 16 pg/mL. Also, where the note is “donor 120, Table 14”, the “IFN-α” value was found to be 2 pg/mL and the “IFN-γ” value was found to be 40 pg/mL. The “IFN-γ induction when formulated with cPLGA, in words” value (formulated with cPLGA) is listed as “induced IFN-γ only when formulated with cPLGA”. In addition, under setting [1], the “IFN-α (pg/ml) mean” value stood at 29 pg/mL and the “IFN-γ (pg/ml) mean” value amounted to 86 pg/mL.

Regarding “5′-CGTTCGA-3′-HEG-5′-CGTTCGA-3′-HEG-5′-CGTTCGA-3′ [Compound C-52]”, the IFN-α (Table 10, donor 28042) came out at 0 pg/mL; the IFN-α (Table 10, donor 28043) was 3 pg/mL; the IFN-α (Table 10, donor 28044) came to 35 pg/mL; the IFN-α (Table 10, donor 28045) came out at 48 pg/mL; the “IFN-α” value (donor 110, Table 14) worked out at 2 pg/mL; the “IFN-α” value (donor 112, Table 14) was 2 pg/mL. The “IFN-α” value came out at 292 pg/mL (donor 119, Table 14) and 2 pg/mL (donor 120, Table 14). In addition, the IFN-γ is, setting by setting: (Table 10, donor 28042) 238 pg/mL; (Table 10, donor 28043) 214 pg/mL; (Table 10, donor 28044) 212 pg/mL; (Table 10, donor 28045) 28 pg/mL; (donor 110, Table 14) 472 pg/mL; (donor 112, Table 14) 48 pg/mL. Moreover, the “IFN-γ” value runs as follows: (donor 119, Table 14) 40 pg/mL; (donor 120, Table 14) 28 pg/mL. The compound further came in with an IFN-α mean (Table 10, mean of donors) of 22 pg/mL. This compound also yielded an IFN-γ mean (Table 10, mean of donors) of 173 pg/mL. Moreover, the “IFN-α (pg/ml) mean” value under setting [1] turned out to be 75 pg/mL. Besides, the “IFN-γ (pg/ml) mean” value under setting [1] was determined as 147 pg/mL.

For the compound “(5′-TCGTCGA-3′)2-glycerol-5′-AACGTTC-3′ [Compound C-27]”, under setting [2], the “IFN-γ (pg/ml) 28065” value is 475 pg/mL, the “IFN-α (pg/ml) 28065” value was 3 pg/mL, the “IFN-α (pg/ml) 28066” value is 0 pg/mL and the “IFN-γ (pg/ml) 28066” value turned out to be 3 pg/mL. For the same compound, under setting [2], the “IFN-α (pg/ml) 28067” value turned out to be 24 pg/mL, the “IFN-γ (pg/ml) 28067” value worked out at 24 pg/mL, the “IFN-α (pg/ml) 28068” value amounted to 16 pg/mL and the “IFN-γ (pg/ml) 28068” value was found to be 226 pg/mL. For the same compound, under “donor 28185, Table 15”, the “IFN-a” value came out at 4 pg/mL and the “IFN-g” value came out at 49 pg/mL. Besides, for the setting “donor 28186, Table 15”, the “IFN-a” value worked out at 4 pg/mL and the “IFN-g” value was 3 pg/mL. Besides, where the note is “donor 28187, Table 15”, the “IFN-a” value amounted to 39 pg/mL and the “IFN-g” value worked out at 21 pg/mL. For the same compound, where the note is “donor 28188, Table 15”, the “IFN-a” value was determined as 4 pg/mL and the “IFN-g” value was determined as 3 pg/mL. Under setting [3], the “IFN-α (pg/ml) mean” value was found to be 11 pg/mL and the “IFN-γ (pg/ml) mean” value came to 182 pg/mL. For the same compound, under setting [4], the “IFN-a (pg/ml) mean” value turned out to be 13 pg/mL and the “IFN-g (pg/ml) mean” value was 19 pg/mL. Where the note is “mean ×2, Table 15”, the “IFN-a (pg/ml) ×2” value worked out at 25 pg/mL. Further, under “mean ×4, Table 15”, the “IFN-g (pg/ml) ×4” value was 75 pg/mL.

`OCC(O)CO` [Glycerol]: the IFN-a is 16 pg/mL (Table 25, donor 28250); 16 pg/mL (Table 25, donor 28251); 16 pg/mL (Table 25, donor 28252); 16 pg/mL (Table 25, donor 28253). Further, the IFN-g by setting is: under setting [5], 16 pg/mL; (Table 25, donor 28251) 12 pg/mL; (Table 25, donor 28252) 2 pg/mL; (Table 25, donor 28253) 1 pg/mL. The IFN-a mean (Table 25) is 16 pg/mL. Besides, for the setting “Table 25”, the IFN-g mean was found to be 8 pg/mL.

With “(5′-TCGTCGA-3′-TEG)2-glycerol-TEG-5′-TCGTCGA-3′ [Compound C-103]”, the “IFN-α induction, in words” value is reported as “HEG (C-94)>TEG (C-103)>C3 (C-104)=no linker (C-28)”. For the setting “Table 24, donor 28234”, the IFN-α came to 16 pg/mL and the IFN-γ came to 21 pg/mL. For the setting “Table 24, donor 28235”, this compound yielded an IFN-α of 21 pg/mL and an IFN-γ of 44 pg/mL. For the setting “Table 24, donor 28236”, this compound showed an IFN-α of 126 pg/mL and an IFN-γ of 250 pg/mL. Where the note is “Table 24, donor 28237”, this compound showed an IFN-α of 213 pg/mL and an IFN-γ of 1854 pg/mL. Further, under setting [6], the IFN-α mean is 94 pg/mL and the IFN-γ mean was determined as 542 pg/mL.

For the compound “5′-ACGTTCG-3′ [Compound P-3, reference compound]”, the “immunomodulatory activity (IFN-γ / IFN-α secretion), in words” value is “did not have immunomodulatory activity”. Besides, for the setting “20 μg/ml, 24 h”, the “IFN-α (pg/ml) Donor 3” value is 0 pg/mL, the “IFN-γ (pg/ml) Donor 3” value came to 1 pg/mL, the “IFN-α (pg/ml) Donor 4” value came to 32 pg/mL and the “IFN-γ (pg/ml) Donor 4” value worked out at 3 pg/mL. Where the note is “Table 25, donor 28250”, this compound gave an IFN-a of 16 pg/mL. Further, the IFN-g under setting [5] stood at 32 pg/mL. Where the note is “Table 25, donor 28251”, this compound returned an IFN-a of 29 pg/mL and an IFN-g of 21 pg/mL. Besides, where the note is “Table 25, donor 28252”, the IFN-a is 38 pg/mL and the IFN-g was determined as 72 pg/mL. In addition, for the setting “Table 25, donor 28253”, the IFN-a worked out at 31 pg/mL and the IFN-g was determined as 1 pg/mL. For the same compound, under “Table 25”, the IFN-a mean was 29 pg/mL and the IFN-g mean worked out at 31 pg/mL. Under setting [2], the “IFN-γ (pg/ml) 28065” value is 94 pg/mL, the “IFN-α (pg/ml) 28065” value was found to be 0 pg/mL, the “IFN-α (pg/ml) 28066” value stood at 0 pg/mL and the “IFN-γ (pg/ml) 28066” value was 27 pg/mL. Moreover, under setting [2], the “IFN-α (pg/ml) 28067” value stood at 5 pg/mL, the “IFN-γ (pg/ml) 28067” value was found to be 1 pg/mL, the “IFN-α (pg/ml) 28068” value came to 0 pg/mL and the “IFN-γ (pg/ml) 28068” value worked out at 0 pg/mL. Under setting [7], the “IFN-α (pg/ml) mean” value came out at 16 pg/mL and the “IFN-γ (pg/ml) mean” value came out at 2 pg/mL. For the same compound, under setting [3], the “IFN-α (pg/ml) mean” value is 1 pg/mL and the “IFN-γ (pg/ml) mean” value was 31 pg/mL.

“5′-TCGAACGTTCGA-3′ (SEQ ID NO: 155) (listed as DNA, chemistry not fully specified) [Compound P-17, reference compound]” yielded an IFN-α (Example 58, 0.8 ug/ml, donor 1) of 52 pg/mL; an IFN-α (Example 58, 0.8 ug/ml, donor 2) of 105 pg/mL; an IFN-α (Example 58, 0.8 ug/ml, donor 3) of 52 pg/mL; an IFN-α (Example 58, 0.8 ug/ml, donor 4) of 286 pg/mL; an IFN-α (Example 58, 4 ug/ml, donor 1) of 9154 pg/mL; an IFN-α (Example 58, 4 ug/ml, donor 2) of 10388 pg/mL. Further, the IFN-α was determined as 531 pg/mL (Example 58, 4 ug/ml, donor 3); 837 pg/mL (Example 58, 4 ug/ml, donor 4); 1022 pg/mL (Example 58, 20 ug/ml, donor 1); 1792 pg/mL (Example 58, 20 ug/ml, donor 2); 52 pg/mL (Example 58, 20 ug/ml, donor 3); 52 pg/mL (Example 58, 20 ug/ml, donor 4). For the same compound, the IFN-α mean was determined as 124 pg/mL (Example 58, 0.8 ug/ml, mean of four individuals); 5228 pg/mL (Example 58, 4 ug/ml, mean of four individuals); 729 pg/mL (Example 58, 20 ug/ml, mean of four individuals).

For the compound `OCCOCCOCCO` [Triethylene glycol], the IFN-a was determined as 16 pg/mL (Table 25, donor 28250); 16 pg/mL (Table 25, donor 28251); 16 pg/mL (Table 25, donor 28252); 16 pg/mL (Table 25, donor 28253). Besides, the IFN-g was 15 pg/mL under setting [5]; 1 pg/mL (Table 25, donor 28251); 7 pg/mL (Table 25, donor 28252); 1 pg/mL (Table 25, donor 28253). For the setting “Table 25”, this compound showed an IFN-a mean of 16 pg/mL. This compound displayed an IFN-g mean (Table 25) of 6 pg/mL.

As for “5′-ATCTCGA-3′ [Compound P-5, reference compound]”, the “immunomodulatory activity (IFN-γ / IFN-α secretion), in words” value is “did not have immunomodulatory activity”. In addition, for the setting “20 μg/ml, 24 h”, the “IFN-α (pg/ml) Donor 3” value was determined as 0 pg/mL, the “IFN-γ (pg/ml) Donor 3” value came to 0 pg/mL, the “IFN-α (pg/ml) Donor 4” value stood at 57 pg/mL and the “IFN-γ (pg/ml) Donor 4” value came to 3 pg/mL. For the same compound, under setting [7], the “IFN-α (pg/ml) mean” value was 29 pg/mL and the “IFN-γ (pg/ml) mean” value amounted to 2 pg/mL.

Turning to “5′-TCGAGAT-3′ [Compound P-13, reference compound]”, the IFN-a was 16 pg/mL (Table 25, donor 28250); 16 pg/mL (Table 25, donor 28251); 16 pg/mL (Table 25, donor 28252); 16 pg/mL (Table 25, donor 28253). For the same compound, the IFN-g is, setting by setting: under setting [5], 18 pg/mL; (Table 25, donor 28251) 13 pg/mL; (Table 25, donor 28252) 22 pg/mL; (Table 25, donor 28253) 1 pg/mL. Also, where the note is “Table 25”, the IFN-a mean was found to be 16 pg/mL. Further, the IFN-g mean (Table 25) came to 14 pg/mL.
